Earlier results on two compounds are cited in patent US20040242698A1, “Analeptic and antidepressant combinations” (Cephalon Inc., priority 2003, published 2004).

One series has as its system rats. The settings on record: Touret et al., 1995, Edgar and Seidel, 1997.
A further series has as its system cats. Conditions: Lin et al., 1992.
In a further series the test system is canines. Conditions: Shelton et al., 1995.
The next series deals with non-human primates. The settings on record: Hernant et al, 1991.
For series [1], the system named is English bulldog sleep disordered breathing model. The settings on record: sleep apnea model; Panckeri et al, 1996.
Another series deals with narcoleptic canine. Conditions: narcolepsy model; Shelton et al, 1995.
Series [2] relates to major depressive disorder. The settings on record: at 6 weeks.

In the case of `NC(=O)C[S+]([O-])C(c1ccccc1)c1ccccc1` (stereo not shown) [Modafinil, 2-(benzhydrylsulfinyl) acetamide], the wakefulness entry (in the series with rats; in the series on cats; in the series on canines; in the series on non-human primates; in series [1]; with narcoleptic canine) was “promotes wakefulness” throughout.
As to `CNCCC(Oc1ccc(C(F)(F)F)cc1)c1ccccc1` (stereo not shown) [fluoxetine], in series [2], the response result is “about 50%”.
